Earlier results, collected in US6403864B1, “Precursor polypeptide of a plant growth factor, a gene encoding a precursor polypeptide of a plant growth factor and a method for promotion of plant growth” (Nagoya University, priority 1999, dated 2002).
Where no end group is shown, it is not given here. [ ]: non-standard residue; d: D form. sY = N[C@@H](Cc1ccc(OS(=O)(=O)O)cc1)C(=O)O

Tested on: plant cell
Settings: compared with PSK-α

[sY]I[sY]T [PSK-β]
Cell proliferation activity relative to PSK-α: less than one-tenth
